Assay results taken from US20240114940A1, “SACCHARIDE COMPOSITIONS HAVING SUCROSE-LIKE CHARACTERISTICS AND RELATED METHODS” (priority 2021, published 2024).

Assays:
Type in all cases: physicochemical
[1] = Heating of saccharide solutions in an open system (observation, ion-exchange chromatography)
Procedure: The following steps were performed to observe the impact of heat and pH on xylo-oligosaccharides: • 1. Four saccharide solutions comprising xylo-oligosaccharides of primarily degree of polymerization (DP) 2-6 (XOS) were created by dissolving saccharides in water, some solutions including an acidity regulator. The four solutions were: • a. XOS in water, pH 7 • b. XOS in water, pH 7 • c. XOS in water and lemon juice, pH 2 • d. XOS in water and baking soda, pH 9 • 2. The four solutions were heated, and the resulting products analyzed. For the four solutions: • a. XOS in water at pH 7 was heated to 110° C. (FIG. 1A). The solution was yellow when dissolved in water, and sticky, dissolving around 60° C. The solution formed soft, sticky threads at 110° C. […] XOS in water at pH 7 was heated to 177° C. (FIG. 1B). The solution got very dark at 177° C. and smelled burnt. The solution began darkening in color around 120° C., with the darkest color formation beginning at 150° C. The solution formed a hard crack consistency at 177° C. When water was added, the hard crack consistency re-dissolved slowly. • c. XOS in water and lemon juice at pH 2 was heated to 177° C. (FIG. 1C). This solution behaved the same as solution (b). • d. […]
The following steps were performed to observe the impact of heat and pH on cello-oligosaccharide: • 1. […] The four solutions were heated, and the resulting products analyzed. […]

[2] = Heating in a closed system (sealed microwave reactor tubes, 2 min), saccharides by ion-exchange chromatography; conditions: acidic conditions (pH 3 buffer), 177° C.
[3] = pH and absorbance at 420 nm of closed-system heated solutions

- degradation after heating ([1]; 177° C. at pH 7 and pH 4, open system): degrades
- degradation after heating ([1]; 177° C. at pH 10, open system): does not degrade
- sucrose degraded [2]: around 85%
- A420 after heating to 177° C. ([3]; samples labelled as pH 3): 0.089
- A420 before heating ([3]; samples labelled as pH 3): 0.082
- pH after heating to 177° C. ([3]; samples labelled as pH 3): 3.08
- pH before heating ([3]; samples labelled as pH 3): 3
- A420 after heating to 110° C. ([3]; samples labelled as pH 7): 0.086
- A420 before heating ([3]; samples labelled as pH 7): 0.115
- pH after heating to 110° C. ([3]; samples labelled as pH 7): 6.88
- pH after heating to 177° C. ([3]; samples labelled as pH 7): 6.84
- pH before heating ([3]; samples labelled as pH 7): 6.78
- A420 before heating ([3]; samples labelled as pH 9): 0.087
- pH after heating 177° C. ([3]; samples labelled as pH 9): 8.14
- pH before heating ([3]; samples labelled as pH 9): 8.76
SMILES: OC[C@H]1O[C@@](CO)(O[C@H]2O[C@H](CO)[C@@H](O)[C@H](O)[C@H]2O)[C@@H](O)[C@@H]1O [Sucrose]
